Patent US9408393B2, “Bismuth-thiols as antiseptics for agricultural, industrial and other uses” (Microbion Corporation, priority 2010, dated 2016)

How the values were obtained:
Enteromorpha spores = assay: Inhibition of algae spore germination; details: up to ten micrograms per ml
Protocol: The effect of three bismuth containing compounds, bismuth dimercaprol (BisBAL), bismuth dimercaptotoluene (BisTOL), and bismuth ethanedithiol (BisEDT), on the settlement of algae was determined, particularly the ability of each compound to inhibit germination of Enteromorpha spores. Each compound was tested at 0.001, 0.01, 0.1, 1.0, and 10.0 μg/ml.

barnacle larvae = assay: Barnacle larvae settlement inhibition
Protocol: Compounds, BisBAL and BisTOL were included in an assay to determine the inhibitory activity of each compound on barnacle larvae settlement behavior. Methods were performed according to techniques practiced in the art. […] In another experiment, BisEDT was dissolved either directly in natural seawater or first dissolved in DMSO and then diluted in natural seawater. The EC50 measurements were not statistically different.

M. hydrocarbonoclasicus = assay: MIC against marine bacteria; format: cell-based; details: marine bacterium M. hydrocarbonoclasicus
Protocol: (§1) This example describes the antimicrobial activity of bismuth containing compounds. The MIC values of three bismuth containing compounds, bismuth dimercaprol (BisBAL), bismuth dimercaptotoluene (BisTOL), and bismuth ethanedithiol (BisEDT), against three different marine bacteria were determined using methods routinely practiced by persons skilled in the art.

V. alginolyticus = assay: MIC against marine bacteria; format: cell-based; details: marine bacterium V. alginolyticus
Protocol: as §1

H. marina = assay: MIC against marine bacteria; format: cell-based; details: marine bacterium H. marina
Protocol: as §1

marine diatom = assay: Marine diatom settlement inhibition; details: 0.1 μg/ml
Protocol: The effect of three bismuth containing compounds, bismuth dimercaprol (BisBAL), bismuth dimercaptotoluene (BisTOL), and bismuth ethanedithiol (BisEDT), on growth of a marine diatom was determined according to techniques practiced in the art. Settlement of marine diatoms (diatoms per fov) was inhibited by increasing concentrations of each of the three compounds (0.001, 0.01, 0.1, 1.0, and 10.0 μg/ml). […] 1987; 41:435-64; Domenico et al., Antimicrob Agents and Chemother. 2001; 45(5):1417-21; Halwani et al., Int J Pharm. 2008; 358:278-84; Johnson et al., Clin Infect Dis. 2007; 45(4):409-415. ADA Council on Scientific Affairs. Direct and indirect restorative materials. JADA 2003; 134:463-72. Alliance for Coastal Technologies (ACT). 2004. Biofouling Prevention Technologies for Coastal Sensors/Sensor Platforms. University of Maryland Center of Environmental Science, Workshop Proceedings, November 2003. UMCES Technical Report Series No. TS-426-04-CBL, Solomons, M D. Athanassiadis et al., Aust Dent J 2007; 52:S64-82. Alt et al., Antimicrob Agents Chemother 2004; 48:4084-88. Bayston et al., Biomaterials 2009; 30:3167-73. Bernardo et al., JADA 2007; 138:775-783. Beytha et al., J Dent 2007; 35:201-206. Bohner et al., J Pharm Sci 1997; 86:565-72. Bruxton, Eng News 1908; 59,525; Chem. Abs., 2:2010. Bueno et al. Oral Surg Oral Med Oral Pathol Oral Radiol Endod 2009; 107:e65-9. […]

bismuth dimercaptotoluene [BisTOL]
Effect on germination of algae spores (Enteromorpha spores): no inhibitory effect | EC50 (concentration at which 50% settlement inhibition occurs) (barnacle larvae): 15.4 ppm | MIC (M. hydrocarbonoclasicus): 0.4 µg/mL | MIC (V. alginolyticus): 1 µg/mL | MIC (H. marina): 7.2 µg/mL | Inhibition of marine diatom settlement (marine diatom): approximately 30%
